# Laboratory results reported in patent publication US12576087B2, “Aryloxypiperidine pyrazole compounds as indoleamine 2,3-dioxygenase inhibitors” (Merck Sharp & Dohme LLC, priority 2018, dated 2026).
# Where two headings read alike, the source gives them in different places.
# Molecular target: IDO1 (Homo sapiens, UniProt P14902)
# Assay: IDO1 Human Whole Blood Assay
# Type: cell-based
# Description: Compounds to be tested were serially diluted in ten 3-fold steps in DMSO starting from 10 mM. 3 μL of compound dilutions or DMSO alone were then dispensed from the dilution plate into a polypropylene 96-well assay plate containing 97 μL of RPMI medium using an Echo 555 acoustic liquid handler (Labcyte). LPS and IFNγ was prepared in RPMI medium to a 10× of final conc. (1000 ng/mL), final concentration is 100 ng/mL.
# Human whole blood was drawn in sodium heparin coated tubes from healthy internal donors. 240 μL of blood was transferred to each of the wells of a v-bottom 96 well plate. 30 μL of compound was transferred from intermediate dilution plate, and incubated for 15 min. 30 μL from stimulants was then transferred to blood and mixed thoroughly. Plate was covered with breathable membrane and incubated at 37° C. for overnight (18 h).
# On day 2, isotope labeled standard solutions of kunurenine and tryptophan was made in water at 10× concentration and 30 μL was added to the blood at 3 μM final concentration. The assay plates were centrifuged at 300×G for 10 min with no brake to separate plasma from red blood cells. 60 μL of plasma samples was removed without disturbing red blood cells. Plasma was diluted with RPMI in 1:1 ratio and proteins were precipitated out with two volumes of Acetonitrile. The plates were centrifuged at 4000×G for 60 min. 20 μL of supernatant was carefully transferred to a 384 well plate containing 40 μL of 0.1% formic acid in water and analyzed by LC/MS/MS.
# LC/MS/MS analyses were performed using Thermo Fisher's LX4-TSQ Quantum Ultra system. This system consists of four Agilent binary high-performance liquid chromatography (HPLC) pumps and a TSQ Quantum Ultra triple quadrupole MS/MS instrument. For each sample, 5 μL were injected onto an Atlantis T3 column (2.1 mm×150 mm, 3 μm particle size) from Waters. The mobile phase gradient pumped at 0.8 mL/min was used to elute the analytes from the column at 25° C. The elution started at 0% B increasing linearly to 25% B at 6.5 min, holding at 25% for 1 min, re-equilibrating to 10 min. Mobile phase A consisted of 0.1% formic acid in water. Mobile phase B consisted of 0.1% of formic acid in acetonitrile. Data were acquired in positive mode using a HESI interface. The operational parameters for the TSQ Quantum Ultra instrument were a spray voltage of 4000 V, capillary temperature of 380° C., vaporizer temperature 400° C., shealth gas 60 arbitrary units, Aux gas 20 arbitrary units, tube lens 85 and collision gas 1.2 mTorr. SRM chromatograms of kynurenine (Q1: 209.2>Q3:94.0) and internal standard (Q1: 215.3>Q3:98.2) were collected for 90 sec. The peak area was integrated by Xcalibur Quan software. The ratios between the kynurenine generated in the reaction and 2D6-Kynurenine spiked-in internal standard were used to generate percentage inhibition and IC50 values. Compounds were titrated and IC50's were calculated by 4 parameter sigmoidal curve fitting formula.
# [1] = WBLD taken as whole blood, read-out: WBLD IC50
# [2] = human whole blood, LPS and IFNγ 100 ng/mL, 18 h, kynurenine by LC/MS/MS, read-out: IDO1 human whole blood assay, IC50
# IDO1, sequence (P14902 whole entry): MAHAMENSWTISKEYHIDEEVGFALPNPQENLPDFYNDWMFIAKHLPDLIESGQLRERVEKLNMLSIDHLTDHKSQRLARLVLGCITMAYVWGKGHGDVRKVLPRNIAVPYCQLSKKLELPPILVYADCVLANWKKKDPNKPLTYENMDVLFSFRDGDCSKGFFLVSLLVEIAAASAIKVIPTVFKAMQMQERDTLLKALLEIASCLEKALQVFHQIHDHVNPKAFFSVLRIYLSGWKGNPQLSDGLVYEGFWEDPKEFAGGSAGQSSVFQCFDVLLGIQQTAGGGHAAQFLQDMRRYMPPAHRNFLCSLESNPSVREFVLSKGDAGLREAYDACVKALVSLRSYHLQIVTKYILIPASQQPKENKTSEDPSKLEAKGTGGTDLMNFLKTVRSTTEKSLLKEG
Structure (SMILES),IC50 [1] [nM],IC50 [2] [nM]
"Cc1cc(F)ccc1OC1CCN(C(=O)Cn2nc(C(=O)N3CC[C@H](O)[C@H](F)C3)c3c2CCCC3)CC1 (racemic) [Example 77, 1-[4-(4-fluoro-2-methyl-phenoxy)-1-piperidyl]-2-[3-[rac-(3R,4S)-3-fluoro-4-hydroxy-piperidine-1-carbonyl]-4,5,6,7-tetrahydroindazol-1-yl]ethanone]",267,–
"Cc1ccccc1OC1CCN(C(=O)Cn2nc(C(=O)N3CCN(C(=O)CO)CC3)c3c2C[C@H]2C[C@@H]32)CC1 [Example 2, 2-Hydroxy-1-(4-((3bR,4aR)-1-(2-oxo-2-(4-(o-tolyloxy)piperidin-1-yl)ethyl)-3b,4,4a,5-tetrahydro-1H-cyclopropa[3,4]cyclopenta[1,2-c]pyrazole-3-carbonyl)piperazin-1-yl)ethanone]",13,–
"C[C@@H]1C[C@H](Oc2ccccc2Cl)CCN1C(=O)Cn1nc(C(=O)N2CCN(C(=O)CO)CC2)c2c1C[C@H]1C[C@@H]21 [Example 4, 1-((2R,4R)-4-(2-chlorophenoxy)-2-methylpiperidin-1-yl)-2-((3bR,4aR)-3-(4-(2-hydroxyacetyl)piperazine-1-carbonyl)-3b,4,4a,5-tetrahydro-1H-cyclopropa[3,4]cyclopenta[1,2-c]pyrazol-1-yl)ethanone]",315,–
"NC(=O)CN1CCN(C(=O)c2nn(CC(=O)N3CCC(Oc4ccccc4Cl)CC3)c3c2CCCC3)CC1 [Example 5, 2-(4-(1-(2-(4-(2-chlorophenoxy)piperidin-1-yl)-2-oxoethyl)-4,5,6,7-tetrahydro-1H-indazole-3-carbonyl)piperazin-1-yl)acetamide]",–,543
"C[C@@H]1C[C@H](Oc2ncccc2C(F)(F)F)CCN1C(=O)Cn1nc(C(=O)N2CCC(OCCO)CC2)c2c1C[C@H]1C[C@@H]21 [Example 8, 2-((3bR,4aR)-3-(4-(2-hydroxyethoxy)piperidine-1-carbonyl)-3b,4,4a,5-tetrahydro-1H-cyclopropa[3,4]cyclopenta[1,2-c]pyrazol-1-yl)-1-((2R,4R)-2-methyl-4-((3-(trifluoromethyl)pyridin-2-yl)oxy)piperidin-1-yl)ethanone]",212,–
"Cc1ccccc1OC1CCN(C(=O)Cn2nc(C(=O)N3CC[C@H](O)[C@H](F)C3)c3c2C[C@H]2C[C@@H]32)CC1 [Example 16, 2-((3bR,4aR)-3-((3R,4S)-3-fluoro-4-hydroxypiperidine-1-carbonyl)-3b,4,4a,5-tetrahydro-1H-cyclopropa[3,4]cyclopenta[1,2-c]pyrazol-1-yl)-1-(4-(o-tolyloxy)piperidin-1-yl)ethanone]",46.7,–
"Cc1ccccc1OC1CCN(C(=O)Cn2nc(C(=O)N3CC[C@H](O)C[C@@H]3C)c3c2CCCC3)CC1 [Example 17, 2-(3-((2S,4S)-4-hydroxy-2-methylpiperidine-1-carbonyl)-4,5,6,7-tetrahydro-1H-indazol-1-yl)-1-(4-(o-tolyloxy)piperidin-1-yl)ethanone]",114,–
"Cc1ccccc1OC1CCN(C(=O)Cn2nc(C(=O)N3CCC(O)CC3)c3c2CCCC3)CC1 [Example 18, 2-(3-(4-hydroxypiperidine-1-carbonyl)-4,5,6,7-tetrahydro-1H-indazol-1-yl)-1-(4-(o-tolyloxy)piperidin-1-yl)ethanone]",64,–
"Cc1ccccc1OC1CCN(C(=O)Cn2nc(C(=O)N3CCC(OCCO)CC3)c3c2CCC3)CC1 [Example 19, 2-(3-(4-(2-hydroxyethoxy)piperidine-1-carbonyl)-5,6-dihydrocyclopenta[c]pyrazol-1(4H)-yl)-1-(4-(o-tolyloxy)piperidin-1-yl)ethanone]",27.3,–
"Cc1ccccc1OC1CCN(C(=O)Cn2nc(C(=O)N3CCC(OCCO)CC3)c3c2CCCC3)CC1 [Example 20, 2-(3-(4-(2-hydroxyethoxy)piperidine-1-carbonyl)-4,5,6,7-tetrahydro-1H-indazol-1-yl)-1-(4-(o-tolyloxy)piperidin-1-yl)ethanone]",20,–
"Cc1ccccc1OC1CCN(C(=O)Cn2nc(C(=O)N3CC[C@H](O)[C@@H](F)C3)c3c2CCCC3)CC1 [Example 23, 2-(3-((3S,4S)-3-fluoro-4-hydroxypiperidine-1-carbonyl)-4,5,6,7-tetrahydro-1H-indazol-1-yl)-1-(4-(o-tolyloxy)piperidin-1-yl)ethanone]",22.9,–
"CC(=O)NC1CCN(C(=O)c2nn(CC(=O)N3CCC(Oc4ccccc4C)CC3)c3c2CCCC3)CC1 [Example 24, N-(1-(1-(2-oxo-2-(4-(o-tolyloxy)piperidin-1-yl)ethyl)-4,5,6,7-tetrahydro-1H-indazole-3-carbonyl)piperidin-4-yl)acetamide]",314,–
"Cc1ccccc1OC1CCN(C(=O)Cn2nc(C(=O)N3CCC(O)(CF)CC3)c3c2CCCC3)CC1 [Example 26, 2-(3-(4-(fluoromethyl)-4-hydroxypiperidine-1-carbonyl)-4,5,6,7-tetrahydro-1H-indazol-1-yl)-1-(4-(o-tolyloxy)piperidin-1-yl)ethanone]",93.8,–
"Cc1ccccc1OC1CCN(C(=O)Cn2nc(C(=O)N3CC[C@@H](O)[C@@H](F)C3)c3c2C[C@H]2C[C@@H]32)CC1 [Example 27, 2-((3bR,4aR)-3-((3S,4R)-3-fluoro-4-hydroxypiperidine-1-carbonyl)-3b,4,4a,5-tetrahydro-1H-cyclopropa[3,4]cyclopenta[1,2-c]pyrazol-1-yl)-1-(4-(o-tolyloxy)piperidin-1-yl)ethanone]",26.3,–
"CC(=O)NC1CCN(C(=O)c2nn(CC(=O)N3CCC(Oc4ccccc4C)CC3)c3c2[C@@H]2C[C@@H]2C3)CC1 [Example 29, N-(1-((3bR,4aR)-1-(2-oxo-2-(4-(o-tolyloxy)piperidin-1-yl)ethyl)-3b,4,4a,5-tetrahydro-1H-cyclopropa[3,4]cyclopenta[1,2-c]pyrazole-3-carbonyl)piperidin-4-yl)acetamide]",114,625
"Cc1ccccc1OC1CCN(C(=O)Cn2nc(C(=O)N3CC[C@H](O)[C@H](F)C3)c3c2CCCC3)CC1 [Example 31, 2-(3-((3R,4S)-3-fluoro-4-hydroxypiperidine-1-carbonyl)-4,5,6,7-tetrahydro-1H-indazol-1-yl)-1-(4-(o-tolyloxy)piperidin-1-yl)ethanone]",590,–

# The remaining lines, values ahead:
IC50 [1] [nM],IC50 [2] [nM],Structure (SMILES)
102,–,"O=C(CO)N1CCN(C(=O)c2nn(CC(=O)N3CCC(Oc4ccccc4Cl)C4CC43)c3c2[C@@H]2C[C@@H]2C3)CC1 (single isomer, unassigned) [Example 170]"
150,–,"O=C(c1nn(CC(=O)N2CCC(Oc3ccccc3Cl)C3CC32)c2c1[C@@H]1C[C@@H]1C2)N1CCC(OCCO)CC1 (single isomer, unassigned) [Example 171]"
596,–,"CC(=O)NC1CCN(C(=O)c2nn(CC(=O)N3CCC(Oc4ccccc4Cl)CC3)c3c2CCCC3)CC1 [Example 6, N-(1-(1-(2-(4-(2-chlorophenoxy)piperidin-1-yl)-2-oxoethyl)-4,5,6,7-tetrahydro-1H-indazole-3-carbonyl)piperidin-4-yl)acetamide]"
–,378,"CCOC(=O)c1nn(CC(=O)N2CC[C@@H](Oc3ccccc3Cl)C[C@H]2C)c2c1CCCC2 [Example 11, ethyl 1-(2-((2R,4R)-4-(2-chlorophenoxy)-2-methylpiperidin-1-yl)-2-oxoethyl)-4,5,6,7-tetrahydro-1H-indazole-3-carboxylate]"
40.2,–,"Cc1ccccc1OC1CCN(C(=O)Cn2nc(C(=O)N3CCC(O)CC3)c3c2C[C@H]2C[C@@H]32)CC1 [Example 21, 2-((3bR,4aR)-3-(4-hydroxypiperidine-1-carbonyl)-3b,4,4a,5-tetrahydro-1H-cyclopropa[3,4]cyclopenta[1,2-c]pyrazol-1-yl)-1-(4-(o-tolyloxy)piperidin-1-yl)ethanone]"
92.4,–,"Cc1ccccc1OC1CCN(C(=O)Cn2nc(C(=O)N3CCC(O)(C(F)F)CC3)c3c2CCCC3)CC1 [Example 22, 2-(3-(4-(difluoromethyl)-4-hydroxypiperidine-1-carbonyl)-4,5,6,7-tetrahydro-1H-indazol-1-yl)-1-(4-(o-tolyloxy)piperidin-1-yl)ethanone]"
188,–,"Cc1ccccc1OC1CCN(C(=O)Cn2nc(C(=O)N3CCC(F)(CO)CC3)c3c2CCC3)CC1 [Example 30, 2-(3-(4-fluoro-4-(hydroxymethyl)piperidine-1-carbonyl)-5,6-dihydrocyclopenta[c]pyrazol-1(4H)-yl)-1-(4-(o-tolyloxy)piperidin-1-yl)ethanone]"
